Data from paper PMC5776677 (Journal of medicinal chemistry, 2016).
Counter-ions that a name gives are not always drawn.

Assays:
HBV = assay: Anti-HBV activity in HepG2; format: cell-based
HIV-1 [1] = assay: Anti-HIV-1 activity in HIV-infected PBMCs; details: for TI (CC50/EC50), HIV-1: HIV-1, PBMCs
Aqueous solubility = format: physicochemical
HIV-1 [2] = details: read-out: EC50 against HIV-1; cited from earlier work
[3] = Cytotoxicity in uninfected PBMCs; format: cell-based; details: human
[4] = format: physicochemical

Row | Molecule | TI (CC50/EC50), HBV (HBV) | TI (CC50/EC50), HIV-1 (HIV-1 [1]) | other results
1 | 6-(Dodecyldisulfanyl)hexyl Hydrogen ((((R)-1-(6-Amino-9H-purin-9-yl)propan-2-yl)oxy)methyl)phosphonate [5b] | >47 | >7000 | –
2 | CCCCCCCCCCCCCCCCSSCCOP(=O)(O)CO[C@H](C)Cn1cnc2c(N)ncnc21 [1b, 2-(hexadecyldisulfanyl)ethyl hydrogen ((((R)-1-(6-amino-9H-purin-9-yl)propan-2-yl)oxy)methyl)phosphonate] | > 1200 | – | aqueous solubility (Aqueous solubility): poor aqueous solubility
3 | CCCCCCCCCCCCCCCCSSCCCCOP(=O)(O)CO[C@H](C)Cn1cnc2c(N)ncnc21 [2b, (R)-4-(hexadecyldisulfanyl)butyl (((1-(6-amino-9H-purin-9-yl)propan-2-yl)oxy)methyl)phosphonate] | >200 | >100000 | aqueous solubility (Aqueous solubility): poor aqueous solubility
4 | CCCCCCCCCCCCCCCCSSCc1ccccc1COP(=O)(O)CO[C@H](C)Cn1cnc2c(N)ncnc21 [4b, (R)-2-((hexadecyldisulfanyl)methyl)benzyl (((1-(6-amino-9H-purin-9-yl)propan-2-yl)oxy)methyl)phosphonate] | – | >31800 | –
5 | CCCCCCCCCCCCCCCCOCCCOP(=O)(O)CO[C@H](C)Cn1cnc2c(N)ncnc21 [CMX-157, Hexadecyloxypropyl-9-R-[2-(Phosphonomethoxy)-Propyl]-Adenine] | – | – | EC50 (HIV-1 [2]): 0.02 µM
6 | CC(C)OC(=O)OCOP(=O)(CO[C@H](C)Cn1cnc2c(N)ncnc21)OCOC(=O)OC(C)C [TDF, tenofovir disoproxil fumarate] | – | – | CC50 [3]: 44 µM
7 | C[C@H](Cn1cnc2c(N)ncnc21)OCP(=O)(O)O [TFV, tenofovir, reference compound] | – | >300 | –
8 | C[C@H](Cn1cnc2c(N)ncnc21)OCP(=O)(O)OCCS [compound 6, 2-mercaptoethyl hydrogen ((((R)-1-(6-amino-9H-purin-9-yl)propan-2-yl)oxy)methyl)phosphonate] | >2 | >5.38 | stability in glycine/HCl buffer ([4]; pH 2.0, 0.1 M DTT, 37.4 °C): no observed decomposition; stability in PBS ([4]; pH 7.43, TFV appears as new signal): Moderate stability; decomposition in aqueous carbonate/bicarbonate buffer ([4]; pH 9.19, 0.1 M DTT, 37.4 °C): significant decomposition; time to complete consumption of starting material ([4]; pH 10.16): ≤ 8 min; fold less active than TFV against HIV-infected PBMCs (HIV-1 [1]; relative to TFV): 58 fold
9 | C[C@H](Cn1cnc2c(N)ncnc21)OCP(=O)(O)OCCCCS [compound 7, 4-mercaptobutyl hydrogen ((((R)-1-(6-amino-9H-purin-9-yl)propan-2-yl)oxy)methyl)phosphonate] | > 1 | – | stability in various aqueous buffers ([4]; all tested pH values, several hours at 37 °C): no detectable decomposition
